Laboratory results: US20210371351A1, “MIXTURES COMPRISING AT LEAST TWO DIFFERENT NITRIFICATION INHIBITORS SELECTED FROM 2-(3,4-DIMETHYL-1H-PYRAZOL-1-YL)SUCCINIC ACID (DMPSA), 3,4-DIMETHYL PYRAZOLIUM GLYCOLATE (DMPG) AND OTHER COMPOUNDS” (BASF SE, priority 2017, published 2021)

System: nitrification
Test: Example 5: soil incubation in bottles with ammonium sulfate, DMPSA, DCD or mixtures, 5 to 15° C., 0 up to 56 days; recovery NH4 (RE/RC), net recovery NH4 (NE/NC), inhibition of NO3 formation (IE/IC, Böhland; Colby)
Set-up: unit not given here
Description: 100 g soil is filled into 500 ml plastic bottles (e.g. soil sampled from the field) and is moistened to 50% water holding capacity. The soil is incubated at 20° C. for two weeks to activate the microbial biomass. 1 ml test solution, containing the compositions and mixtures of the invention in the appropriate concentration, or DMSO and 5 to 10 mg nitrogen in the form of ammoniumsulfate-N is added to the soil and everything mixed well. Bottles are capped but loosely to allow air exchange. The bottles are then incubated at 5 to 15° C. for 0 up to 56 days.
For analysis, 300 ml of a 1% K2SO4-solution is added to the bottle containing the soil and shaken for 2 hrs in a horizontal shaker at 150 rpm. Then the whole solution is filtered through a Macherey-Nagel Filter MN 807′/. Ammonium and nitrate content is then analyzed in the filtrate in an autoanalyzer at 550 nm (Merck, AA11).
The Böhland equation is described in Böhland, H., et al. (1973) “Mittel zur Hemmung bzw. Regelung der Nitrifikation von Ammoniumstickstoff in Kulturböden”. DDR-Wirtschaftspatent (Economic patent of the German Democratic Republic) C 05c 169 727. Cited by: Peschke, H. (1985) “Zur Bewertung der inhibierenden Wirkung von Nitrifiziden im Boden”, Zbl. Mikrobiol. 140, pp. 583-588.

2-(3,4-dimethyl-1H-pyrazol-1-yl)succinic acid and/or 2-(4,5-dimethyl-1H-pyrazol-1-yl)succinic acid [DMPSA]
IE inhibition of NO3 formation (IT5° C., DAT10, % a.i.: DMPSA 0.5, DCD 1, DMPSA + DCD 0.5 + 1 (1:2)): 18 | IE inhibition of NO3 formation (IT5° C., DAT10, % a.i.: DMPSA 0.5, DCD 3, DMPSA + DCD 0.5 + 3 (1:6)): 18 | IE inhibition of NO3 formation (IT5° C., DAT20, % a.i.: DMPSA 0.5, DCD 1, DMPSA + DCD 0.5 + 1 (1:2)): 20 | IE inhibition of NO3 formation (IT5° C., DAT20, % a.i.: DMPSA 0.5, DCD 3, DMPSA + DCD 0.5 + 3 (1:6)): 20 | IE (inhibition of NO3 formation, Böhland) (IT5° C., DAT28, % a.i. DMPSA 0.25, DCD 1): 77 | IE (inhibition of NO3 formation, Böhland) (IT5° C., DAT28, % a.i. DMPSA 0.25, DCD 3): 77 | IE (inhibition of NO3 formation, Böhland) (IT5° C., DAT28, % a.i. DMPSA 0.30, DCD 0.05): 42 | IE (inhibition of NO3 formation, Böhland) (IT5° C., DAT28, % a.i. DMPSA 0.50, DCD 0.08): 41 | IE inhibition of NO3 formation (IT5° C., DAT28, % a.i.: DMPSA 0.50, DCD 0.0125, DMPSA + DCD 0.50 + 0.0125 (40:1)): 44 | IE inhibition of NO3 formation (IT5° C., DAT28, % a.i.: DMPSA 0.50, DCD 0.0143, DMPSA + DCD 0.50 + 0.0143 (35:1)): 44 | IE inhibition of NO3 formation (IT5° C., DAT28, % a.i.: DMPSA 0.50, DCD 0.0167, DMPSA + DCD 0.50 + 0.0167 (30:1)): 44 | IE inhibition of NO3 formation (IT5° C., DAT30, % a.i.: DMPSA 0.5, DCD 1, DMPSA + DCD 0.5 + 1 (1:2)): 66 | IE inhibition of NO3 formation (IT5° C., DAT30, % a.i.: DMPSA 0.5, DCD 3, DMPSA + DCD 0.5 + 3 (1:6)): 66 | IE (inhibition of NO3 formation, Böhland) (IT5° C., DAT42, % a.i. DMPSA 0.25, DCD 1): 75 | IE (inhibition of NO3 formation, Böhland) (IT5° C., DAT42, % a.i. DMPSA 0.25, DCD 3): 75 | IE (inhibition of NO3 formation, Böhland) (IT5° C., DAT42, % a.i. DMPSA 0.30, DCD 0.05): 55 | IE (inhibition of NO3 formation, Böhland) (IT5° C., DAT42, % a.i. DMPSA 0.50, DCD 0.08): 53 | IE (inhibition of NO3 formation, Böhland) (IT5° C., DAT56, % a.i. DMPSA 0.25, DCD 1): 83 | IE (inhibition of NO3 formation, Böhland) (IT5° C., DAT56, % a.i. DMPSA 0.25, DCD 3): 83 | IE (inhibition of NO3 formation, Böhland) (IT5° C., DAT56, % a.i. DMPSA 0.30, DCD 0.05): 63 | IE inhibition of NO3 formation (IT10° C., DAT10, % a.i.: DMPSA 0.5, DCD 1, DMPSA + DCD 0.5 + 1 (1:2)): 70 | IE inhibition of NO3 formation (IT10° C., DAT10, % a.i.: DMPSA 0.5, DCD 3, DMPSA + DCD 0.5 + 3 (1:6)): 70 | IE inhibition of NO3 formation (IT10° C., DAT20, % a.i.: DMPSA 0.5, DCD 1, DMPSA + DCD 0.5 + 1 (1:2)): 7 | IE inhibition of NO3 formation (IT10° C., DAT20, % a.i.: DMPSA 0.5, DCD 3, DMPSA + DCD 0.5 + 3 (1:6)): 7 | IE (inhibition of NO3 formation, Böhland) (IT10° C., DAT28, % a.i. DMPSA 0.25, DCD 1): 59 | IE (inhibition of NO3 formation, Böhland) (IT10° C., DAT28, % a.i. DMPSA 0.25, DCD 3): 59 | IE (inhibition of NO3 formation, Böhland) (IT10° C., DAT28, % a.i. DMPSA 0.30, DCD 0.05): 51 | IE (inhibition of NO3 formation, Böhland) (IT10° C., DAT28, % a.i. DMPSA 0.50, DCD 0.08): 46 | IE inhibition of NO3 formation (IT10° C., DAT28, % a.i.: DMPSA 0.50, DCD 0.0125, DMPSA + DCD 0.50 + 0.0125 (40:1)): 62 | IE inhibition of NO3 formation (IT10° C., DAT28, % a.i.: DMPSA 0.50, DCD 0.0143, DMPSA + DCD 0.50 + 0.0143 (35:1)): 62 | IE inhibition of NO3 formation (IT10° C., DAT28, % a.i.: DMPSA 0.50, DCD 0.0167, DMPSA + DCD 0.50 + 0.0167 (30:1)): 62 | IE inhibition of NO3 formation (IT10° C., DAT30, % a.i.: DMPSA 0.5, DCD 1, DMPSA + DCD 0.5 + 1 (1:2)): 79 | IE inhibition of NO3 formation (IT10° C., DAT30, % a.i.: DMPSA 0.5, DCD 3, DMPSA + DCD 0.5 + 3 (1:6)): 79 | IE (inhibition of NO3 formation, Böhland) (IT10° C., DAT42, % a.i. DMPSA 0.25, DCD 1): 66 | IE (inhibition of NO3 formation, Böhland) (IT10° C., DAT42, % a.i. DMPSA 0.25, DCD 3): 66 | IE (inhibition of NO3 formation, Böhland) (IT10° C., DAT42, % a.i. DMPSA 0.30, DCD 0.05): 46
